Among the data in ChEMBL document CHEMBL4043145, “Pyridine-pyrimidine amides that prevent HGF-induced epithelial scattering by two distinct mechanisms” (Bioorg Med Chem Lett, 2017) are Activity and IC50 values, retold here.

Assay [1] has as its system A2780. Kind of assay: Cell cycle arrest in human A2780 cells assessed as accumulation at G2/M phase at 100 nM (reference value: 19.42 to 20.43%). It counts as functional.
Assay [2] has as its system A2780. Kind of assay: Cell cycle arrest in human A2780 cells assessed as accumulation at S phase at 300 nM (reference value: 21.16 to 22.81%). It counts as functional.
The subject of assay [3] is A2780. Kind of assay: Cell cycle arrest in human A2780 cells assessed as accumulation at G2/M phase at 300 nM (reference value: 19.42 to 20.43%). It counts as functional.
The subject of assay [4] is MCF7. In words: Cell cycle arrest in human MCF7 cells assessed as accumulation at G2/M phase at 1000 nM (reference value: 20.06 to 22.33%). The assay is classed as functional.
Assay [5] deals with PC-3. Kind of assay: Cell cycle arrest in human p53-null PC3 cells assessed as accumulation at S phase at 100 nM (reference value: 29.08 to 29.33%). It counts as functional.
The subject of assay [6] is PC-3. In words: Cell cycle arrest in human p53-null PC3 cells assessed as accumulation at G1 phase at 300 nM (reference value: 50.77 to 51.16%). The assay is classed as functional.
In assay [7] the test system is PC-3. In words: Cell cycle arrest in human p53-null PC3 cells assessed as accumulation at S phase at 300 nM (reference value: 29.08 to 29.33%). It counts as functional.
The test system of assay [8] is PC-3. In words: Cell cycle arrest in human p53-null PC3 cells assessed as accumulation at G2/M phase at 300 nM (reference value: 18.37 to 18.96%). The assay is classed as functional.
For assay [9], the system named is MFE-280. Kind of assay: Cell cycle arrest in human MFE280 cells assessed as accumulation at G1 phase at 1000 nM (reference value: 64.99 to 67.86%). It counts as functional.
Assay [10] relates to MFE-280. In words: Cell cycle arrest in human MFE280 cells assessed as accumulation at S phase at 1000 nM (reference value: 14.14 to 15.66%). It counts as functional.
Assay [11] has as its system MFE-280. In words: Cell cycle arrest in human MFE280 cells assessed as accumulation at S phase at 300 nM (reference value: 14.14 to 15.66%). The assay is classed as functional.
Assay [12] has as its system MFE-280. In words: Cell cycle arrest in human MFE280 cells assessed as accumulation at G2/M phase at 300 nM (reference value: 16.43 to 17.9%). The assay is classed as functional.
The test system of assay [13] is MFE-296. Kind of assay: Cell cycle arrest in human MFE296 cells assessed as accumulation at G1 phase at 1000 nM (reference value: 61.05 to 64.87%). The assay is classed as functional.
The subject of assay [14] is MFE-296. Kind of assay: Cell cycle arrest in human MFE296 cells assessed as accumulation at S phase at 1000 nM (reference value: 16.96 to 19.19%). The assay is classed as functional.
For assay [15], the system named is MFE-296. In words: Cell cycle arrest in human MFE296 cells assessed as accumulation at G2/M phase at 1000 nM (reference value: 15.71 to 17.04%). It counts as functional.
Assay [16] concerns MFE-296. In words: Cell cycle arrest in human MFE296 cells assessed as accumulation at G2/M phase at 300 nM (reference value: 15.71 to 17.04%). The assay is classed as functional.
The subject of assay [17] is T47D. In words: Cell cycle arrest in human T47D cells assessed as accumulation at G1 phase at 300 nM (reference value: 45.5 to 57.8%). The assay is classed as functional.
A short description of assay [18]: Inhibition of bovine brain tubulin polymerization. Also noted: species or system Bos taurus.
The subject of assay [19] is MFE-280. In words: Induction of apoptosis in human MFE280 cells assessed as late apoptotic cells at 300 nM by 7-AAD/Annexin staining-based assay (reference value: 6 to 7.4%). It counts as functional.

As for `O=C(Nc1ccc(-c2cccc(Cl)c2)cn1)c1cncnc1`, the Activity is 20.89% in assay [1]; 22.35% in [2]; 30.36% in [3]; 63.38% in assay [4]; 22.12% in assay [5]; 14.74% in assay [6]. The Activity came out at 22.85% in assay [7]; 60.72% in [8]; 34.18% in assay [9]; 18.57% in [10]; 21.09% in assay [11]; 37.86% in assay [12]. Further, the Activity was 8.62% in assay [13]; 18.15% in assay [14]; 72.12% in [15]; 55.89% in [16]; 42.55% in assay [17]; 9.5% in assay [19]. This compound also showed an IC50 in assay [18] of 1450 nM.

The IC50 is the midpoint of a concentration-inhibition curve.
